# Assay results published in patent US4742049A, “Semisynthetic erythromycin antibiotics” (Abbott Laboratories, priority 1986, dated 1988).
# Read-outs that look alike come from different tables or passages of the source.
# Legend:
# [1] = tested on: gastointestinal motility; test: gastrointestinal motility in sensitive animal models (general statement); format: in vivo; conditions: compared with parent erythromycin compound
# [2] = tested on: Haemophilus influenzae; test: MIC against strains of Haemophilus influenzae; format: cell-based; conditions: Haemophilus influenzae, read-out: MIC
# Description: Erythromycin A was used for this purpose.
# After incubation, each disk is read.
# In the manner of Example 23, the efficacy of compounds of this invention were tested against numerous strains of Haemophilus influenzae.
# [3] = tested on: gut contractions (stomach, duodenum, jejunum); conditions: dog, in vivo, iv, 4 mg/kg
# Description: Compounds of this invention have been tested for gastrointestinal stimulating activity in a dog model at 4 mg/kg intravenously. Contractions in the gut were recorded with surgically implanted strain gauges. […] Ratios were calculated for the stomach, duodenum and jejunum, and a final arithmetic mean index was calculated and reported in Table 1.
smiles,measurement,setting,value
"CC[C@H]1OC(=O)[C@H](C)[C@@H](O[C@H]2C[C@@](C)(OC)[C@@H](O)[C@H](C)O2)[C@H](C)[C@@H](O[C@@H]2O[C@H](C)C[C@H](N(C)C)[C@H]2O)[C@](C)(OC)C[C@@H](C)C(=O)[C@H](C)[C@H]2N(CCN(C)C)C(=O)O[C@]12C [Example 9, 11-deoxy-6-O-methyl erythromycin A 11,12-[N-(2-dimethylamino)ethyl]cyclic carbamate]",gastointestinal motility and associated side-effects,[1],much less gastointestinal motility and associated side-effects than the parent erythromycin compound
same,MIC,"[2]; ATCC9006, strain ATCC 9006",0.25 µg/mL
same,MIC,"[2]; ATCC9795, strain ATCC 9795",0.25 µg/mL
same,MIC,"[2]; ATCC10211, strain ATCC 10211",0.5 µg/mL
same,MIC,"[2]; ATCC19418, strain ATCC 19418",0.5 µg/mL
same,MIC,[2]; strain 504,1 µg/mL
same,MIC,[2]; strain 519A,0.5 µg/mL
same,MIC,[2]; strain 566A,0.5 µg/mL
same,MIC,[2]; strain 588A,0.25 µg/mL
same,MIC,[2]; strain 632A,0.5 µg/mL
same,MIC,[2]; strain 667A,0.25 µg/mL
same,MIC,[2]; strain 747C,0.25 µg/mL
same,MIC,[2]; strain 751,0.25 µg/mL
same,MIC,[2]; strain 1177,0.5 µg/mL
same,MIC,[2]; strain 1435,0.12 µg/mL
same,MIC,[2]; strain 5036B,0.5 µg/mL
same,MIC,[2]; strain DILL AMP R,0.25 µg/mL
same,MIC,[2]; strain SOL AMP R,0.25 µg/mL
same,MIC,[2]; strain SPK AMP R,0.25 µg/mL
same,Gastrointestinal Motility Index,[3],.013
